{"source": "paper PMC5115179", "about": "(Pharmacology Research & Perspectives, 2016)", "key": {"[1]": {"assay": "Metabolite formation kinetics in HLMs", "type": "in vitro ADME", "conditions": "human liver microsomes", "protocol": "Microsomal incubations were conducted as described above with modifications. […] The K m was calculated using nonlinear regression in Graphpad Prism. Due to the lack of authentic standard and relatively short rate of parent disappearance, the maximum formation velocity (V max) could not be determined for either metabolites."}, "[2]": {"test_system": "rat", "set-up": "method as in Colombo et al., 1995", "conditions": "rat, 12.5, 25, 50 mg/kg i.p.; ref Colombo et al., 1995; cited from earlier work"}, "[3]": {"test_system": "rat", "set-up": "method as in Poggioli et al., 1999", "conditions": "rat, 25, 100, 200 mg/kg p.o.; ref Poggioli et al., 1999; cited from earlier work"}, "[4]": {"assay": "in vivo", "type": "in vivo", "conditions": "mouse; for half-life / Kp / AUC / CL/F / Cmax: both sexes, ip; for Kp: C57/B6, brain/serum, read-out: Brain to sera AUC ratio", "protocol": "In pharmacokinetic studies, mice were not randomized to groups but instead assigned to treatment and time points such that there was no gender of weight bias. Studies were initiated in the morning and following treatment mice were euthanized by CO2 asphyxiation and cervical dislocation at predetermined time points (0.25, 0.5, 1, 2, 4, 8, 12, and 24 h) (n = 3–4 animals per time point). Blood (via cardiac puncture), brain, liver, and kidney were rapidly collected, tissues were snap‐frozen in liquid nitrogen, and stored at −80°C prior to further analysis. Sera (20–100 μL) was obtained by low‐speed centrifugation at 2000 × g for 10 min at 6°C. Tissues were suspended in phosphate‐buffered saline (PBS, 1:5, w/v) and homogenized via mechanical homogenization before preparation for LC‐MS/MS analysis.\nSamples (3 μL) were injected onto a Kinetex PFP (50 × 2.1 mm, 1.7 μm particle size) UPLC column and eluted with a binary gradient consisting of water with 0.1% formic acid (mobile phase A) and methanol with 0.1% formic acid (mobile phase B). Initially, 5% mobile phase B was held for 0.4 min at a flow rate of 0.3 mL/min, then increased linearly to 85% over 2.6 min. This composition was held constant for 0.5 min then returned to initial conditions within 6 sec and equilibrated for an additional 1.8 min. Eluent was directed to waste for the initial 0.4 min then to an ABI Sciex 6500 Qtrap tandem mass spectrometer. […] Where necessary, samples were diluted in blank matrices for analysis. Methods were developed using the criteria presented in the FDA bioanalytical guidance document (www.fda.gov, 2013).\nPharmacokinetic outcomes were obtained via standard noncompartmental methods using Kinetica (version 5.1, Thermo Fisher Scientific, Waltham, MA). The maximum concentration (C max) was obtained directly from the concentration–time profiles. Area under the concentration–time curve (AUC) from time zero to the last collected time point was determined using the trapezoidal method with linear up/log down interpolation. For sera and urine, data above the limit of detection but below the LLOQ were computed as LLOQ/2 (7 nmol/L, 7.5 μg/mL, respectively) to allow for the recovery of the terminal half‐life as reported previously (Beal 2001). To obtain estimates of variability around the mean of AUC and C max, the method of Bailer–Satterwaithe was employed due to the destructive sampling approach (Nedelman et al. 1995). Furthermore, as a result of the destructive sampling approach outcomes for half‐life, apparent volume of distribution and apparent clearance could not be reported with a term for uncertainty."}, "[5]": {"test_system": "rat", "set-up": "method as in Lamb et al., 2003", "conditions": "rat, 3.2, 32 mg/kg i.p; ref Lamb et al., 2003; cited from earlier work"}, "[6]": {"test_system": "aldh5a1^−/− mice", "set-up": "method as in Gupta et al. 2002", "conditions": "ref Gupta et al. 2002; cited from earlier work"}, "[7]": {"assay": "Metabolite identification in samples from mouse pharmacokinetic studies (candidate metabolites)", "type": "in vivo", "conditions": "LC‐MS/MS of NCS‐382‐treated mouse samples", "protocol": "Metabolite identification was conducted on samples obtained from pharmacokinetic studies in mice. Analytical conditions and equipment were similar to those described above with some modifications. Samples (10 μL) were injected onto a Kinetex PFP (50 × 2.1 mm, 1.7 μm particle size) UPLC column maintained at 40°C. […] MS experiments consisted of enhanced MS (EMS), neutral loss (NL), precursor ion scan (Prec), and MRM each followed by MS/MS experiments when necessary. Constant conditions such as a source temperature (450°C), signal threshold (500 cps), and CAD gas (“high”) were used, while additional parameters (e.g., collision energy, collision energy spread, mass range, etc.) were obtained by the software during data‐dependent scans. Studies were performed using sera and brain samples, with time points pooled for individual matrices and a reference control derived by pooling the sera or brain homogenates from three vehicle‐treated animals.\nUsing the Light Sight software, a comprehensive list of prospective phase I and phase II metabolites were targeted (Table S2). […] A number of structurally feasible metabolites (including oxidation) were initially identified, but could not be confirmed by their mass fragmentation patterns. […] Both peaks were detected in urine samples (Fig. S1B), but not in feces."}, "[8]": {"conditions": "100 mg/kg i.p., tissue density assumed equal to water"}, "[9]": {"conditions": "300 mg/kg i.p., tissue density assumed equal to water"}, "[10]": {"conditions": "500 mg/kg i.p., tissue density assumed equal to water"}}, "note": "Like-named read-outs stand apart in the source and are kept apart here."}
{"smiles": "O=C(O)/C=C1\\CCCc2ccccc2C1O", "note": "(stereo not drawn) [NCS‐382, 6,7,8,9‐tetrahydro‐5‐hydroxy‐5H‐benzo‐cyclohept‐6‐ylideneacetic acid]", "values": [{"measurement": "Km", "setting": "[1]; 120 min, read-out: Km for dehydrogenation", "value": "12.7 ± 4.8", "unit": "µM"}, {"measurement": "Km", "setting": "[1]; saturation not obtained, read-out: Km for glucuronidation", "value": "> 100", "unit": "µM"}, {"measurement": "discriminative stimulus effects of GHB", "setting": "[2]", "value": "Blockade of the discriminative stimulus effects of gamma-hydroxybutyric acid (GHB) by the GHB receptor antagonist NCS-382."}, {"measurement": "gastric emptying", "setting": "[3]", "value": "dose dependently, ↓ gastric emptying"}, {"measurement": "prokinetic effect of GHB", "setting": "[3]", "value": "antagonized the prokinetic effect of GHB"}, {"measurement": "half-life", "setting": "[4]; C57/B6, brain, 100 mg/kg i.p., read-out: Brain t 1/2 (converted)", "value": 58, "unit": "min"}, {"measurement": "half-life", "setting": "[4]; C57/B6, brain, 300 mg/kg i.p., read-out: Brain t 1/2 (converted)", "value": 53, "unit": "min"}, {"measurement": "half-life", "setting": "[4]; C57/B6, brain, 500 mg/kg i.p., read-out: Brain t 1/2 (converted)", "value": 45.7, "unit": "min"}, {"measurement": "Kp", "setting": "[4]; 100 mg/kg i.p.", "value": 1.2}, {"measurement": "Kp", "setting": "[4]; 300 mg/kg i.p.", "value": 0.72}, {"measurement": "Kp", "setting": "[4]; 500 mg/kg i.p.", "value": 1.8}, {"measurement": "half-life", "setting": "[4]; C57/B6, kidney, 100 mg/kg i.p., read-out: Kidney t 1/2 (converted)", "value": 18.5, "unit": "min"}, {"measurement": "AUC", "setting": "[4]; C57/B6, serum, 100 mg/kg i.p.", "value": "119 ± 38", "unit": "µM·h"}, {"measurement": "CL/F", "setting": "[4]; C57/B6, serum, 100 mg/kg i.p.", "value": 63.3, "unit": "mL/min/kg"}, {"measurement": "Cmax", "setting": "[4]; C57/B6, serum, 100 mg/kg i.p.", "value": "241 ± 106", "unit": "µM"}, {"measurement": "half-life", "setting": "[4]; C57/B6, serum, 100 mg/kg i.p., read-out: Serum t 1/2 (converted)", "value": 14.6, "unit": "min"}, {"measurement": "AUC", "setting": "[4]; C57/B6, serum, 300 mg/kg i.p.", "value": "436 ± 42", "unit": "µM·h"}, {"measurement": "CL/F", "setting": "[4]; C57/B6, serum, 300 mg/kg i.p.", "value": 52.5, "unit": "mL/min/kg"}, {"measurement": "Cmax", "setting": "[4]; C57/B6, serum, 300 mg/kg i.p.", "value": "374 ± 49", "unit": "µM"}, {"measurement": "half-life", "setting": "[4]; C57/B6, serum, 300 mg/kg i.p., read-out: Serum t 1/2 (converted)", "value": 28.1, "unit": "min"}, {"measurement": "AUC", "setting": "[4]; C57/B6, serum, 500 mg/kg i.p.", "value": "717 ± 83", "unit": "µM·h"}, {"measurement": "CL/F", "setting": "[4]; C57/B6, serum, 500 mg/kg i.p.", "value": 53.2, "unit": "mL/min/kg"}, {"measurement": "Cmax", "setting": "[4]; C57/B6, serum, 500 mg/kg i.p.", "value": "451 ± 49", "unit": "µM"}, {"measurement": "half-life", "setting": "[4]; C57/B6, serum, 500 mg/kg i.p., read-out: Serum t 1/2 (converted)", "value": 41, "unit": "min"}, {"measurement": "Serum V/F", "setting": "[4]; 100 mg/kg i.p.", "value": 2.62, "unit": "L/kg"}, {"measurement": "time after administration up to which detectable in sera", "setting": "[4]; 100 mg/kg i.p.", "value": "up to 4 h"}, {"measurement": "time after administration up to which quantifiable in brain", "setting": "[4]; 100 mg/kg i.p.", "value": "up to 8 h"}, {"measurement": "time after administration up to which quantifiable in kidney", "setting": "[4]; 100 mg/kg i.p.", "value": "up to 4 h"}, {"measurement": "time after administration up to which quantifiable in liver", "setting": "[4]; 100 mg/kg i.p.", "value": "up to 2 h"}, {"measurement": "time after administration up to which quantifiable in sera", "setting": "[4]; 100 mg/kg i.p.", "value": "up to 2 h"}, {"measurement": "Brain AUC", "setting": "[4]; [8]", "value": "139 ± 60", "unit": "µM·h"}, {"measurement": "Brain Cmax", "setting": "[4]; [8]", "value": "60 ± 9.5", "unit": "µM"}, {"measurement": "Kidney AUC", "setting": "[4]; [8]", "value": "24.5 ± 5.3", "unit": "µM·h"}, {"measurement": "Kidney Cmax", "setting": "[4]; [8]", "value": "23.6 ± 3.0", "unit": "µM"}, {"measurement": "Liver AUC", "setting": "[4]; [8]", "value": "1150 ± 595", "unit": "µM·h"}, {"measurement": "Liver Cmax", "setting": "[4]; [8]", "value": "1695 ± 2030", "unit": "µM"}, {"measurement": "Serum V/F", "setting": "[4]; 300 mg/kg i.p.", "value": 2.93, "unit": "L/kg"}, {"measurement": "Brain AUC", "setting": "[4]; [9]", "value": "313 ± 33", "unit": "µM·h"}, {"measurement": "Brain Cmax", "setting": "[4]; [9]", "value": "141 ± 45", "unit": "µM"}, {"measurement": "Serum V/F", "setting": "[4]; 500 mg/kg i.p.", "value": 4.25, "unit": "L/kg"}, {"measurement": "Brain AUC", "setting": "[4]; [10]", "value": "1280 ± 175", "unit": "µM·h"}, {"measurement": "Brain Cmax", "setting": "[4]; [10]", "value": "530 ± 70", "unit": "µM"}, {"measurement": "motor effects of GHB", "setting": "[5]", "value": "NCS-382 did not antagonize the motor effects of GHB, consistent with the belief that many of the behavioral actions of exogenously administered GHB result from GHB's actions at sites other than the GHB receptor."}, {"measurement": "lifespan of SSADHD mice", "setting": "[6]", "value": "significant lifespan extension"}, {"measurement": "Peak Area (%)", "setting": "[7]", "value": 25, "unit": "%"}]}
